The results in this text go back to patent US20260256738A1, “METHODS OF TREATING CANCER WITH A RAS MUTATION” (Immuneering Corporation, priority 2023, published 2026).

The nature of series [1]: Microsome Stability (% remaining @1 hour). It counts as in vitro ADME. The note with it: Human; 2 μM.
The nature of series [2]: Microsome Stability (% remaining @1 hour). Format: in vitro ADME. The note with it: Beagle Dog; 2 μM.
Series [3] can be described thus: Microsome Stability (% remaining @1 hour). It counts as in vitro ADME. To be noted: SD Rat; 2 μM.
Series [4] is described as follows: Plasma Stability (% remaining @2 hour). It counts as in vitro ADME. To be noted: Human; 2 μM.
Series [5] in a line: Plasma Stability (% remaining @2 hour). It counts as in vitro ADME. To be noted: Beagle Dog; 2 μM.
The nature of series [6]: Plasma Stability (% remaining @2 hour). Format: in vitro ADME. The note with it: SD Rat; 2 μM.
Series [7] in a line: Plasma Stability (% remaining @2 hour). The note with it: CD-1 Mouse; 2 μM. It counts as in vitro ADME.
For series [8], the target named is T1, CYP450 2B6 (Homo sapiens, UniProt P20813).
T1 sequence (P20813 1-491): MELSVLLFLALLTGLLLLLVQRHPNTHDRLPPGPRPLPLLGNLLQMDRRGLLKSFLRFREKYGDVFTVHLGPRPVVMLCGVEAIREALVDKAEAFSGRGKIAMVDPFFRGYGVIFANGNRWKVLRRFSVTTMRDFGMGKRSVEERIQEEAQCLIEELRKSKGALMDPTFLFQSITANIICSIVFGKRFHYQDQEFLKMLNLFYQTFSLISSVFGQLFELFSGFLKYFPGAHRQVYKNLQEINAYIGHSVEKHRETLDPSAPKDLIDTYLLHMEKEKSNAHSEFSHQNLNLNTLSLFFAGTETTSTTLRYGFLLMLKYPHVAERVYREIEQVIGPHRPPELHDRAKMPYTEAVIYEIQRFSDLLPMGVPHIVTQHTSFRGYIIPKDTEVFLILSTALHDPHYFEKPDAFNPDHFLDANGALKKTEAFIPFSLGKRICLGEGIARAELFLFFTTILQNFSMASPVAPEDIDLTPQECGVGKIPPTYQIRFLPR
In words: CYP450 Panel. It counts as in vitro ADME. The note with it: 10 μM; substrate bupropion.

Series [9] addresses CYP450 2C9 (Homo sapiens, UniProt P11712). In words: CYP450 Panel. Format: in vitro ADME. The note with it: 10 μM; substrate Diclofenac; in % (unit assumed).
For series [10], the target named is CYP450 2C19 (Homo sapiens, UniProt P33261). In words: CYP450 Panel. To be noted: 10 μM; substrate mephenytoin; in % (unit assumed). It counts as in vitro ADME.
Sequence of CYP450 2C19 (P33261 whole entry): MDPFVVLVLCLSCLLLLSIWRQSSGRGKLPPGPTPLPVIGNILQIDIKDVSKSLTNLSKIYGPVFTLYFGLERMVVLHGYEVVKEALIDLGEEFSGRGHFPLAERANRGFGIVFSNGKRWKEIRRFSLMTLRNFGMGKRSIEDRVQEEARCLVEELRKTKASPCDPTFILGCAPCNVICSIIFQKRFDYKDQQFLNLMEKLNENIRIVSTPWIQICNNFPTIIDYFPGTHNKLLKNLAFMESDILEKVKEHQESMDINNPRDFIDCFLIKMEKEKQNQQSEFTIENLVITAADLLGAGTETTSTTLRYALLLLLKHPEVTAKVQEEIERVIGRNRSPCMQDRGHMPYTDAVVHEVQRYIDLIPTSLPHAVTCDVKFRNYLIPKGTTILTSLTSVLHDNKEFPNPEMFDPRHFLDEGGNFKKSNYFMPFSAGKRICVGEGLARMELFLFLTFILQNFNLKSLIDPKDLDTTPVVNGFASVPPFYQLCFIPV
The target of series [11] is CYP450 3A4 (Homo sapiens, UniProt P08684). In words: CYP450 Panel. Format: in vitro ADME. The note with it: 10 μM; for CYP450 Panel 3A4 (midazolam): substrate midazolam; for CYP450 Panel 3A4 (testosterone): substrate testosterone.
Sequence of CYP450 3A4 (P08684 whole entry): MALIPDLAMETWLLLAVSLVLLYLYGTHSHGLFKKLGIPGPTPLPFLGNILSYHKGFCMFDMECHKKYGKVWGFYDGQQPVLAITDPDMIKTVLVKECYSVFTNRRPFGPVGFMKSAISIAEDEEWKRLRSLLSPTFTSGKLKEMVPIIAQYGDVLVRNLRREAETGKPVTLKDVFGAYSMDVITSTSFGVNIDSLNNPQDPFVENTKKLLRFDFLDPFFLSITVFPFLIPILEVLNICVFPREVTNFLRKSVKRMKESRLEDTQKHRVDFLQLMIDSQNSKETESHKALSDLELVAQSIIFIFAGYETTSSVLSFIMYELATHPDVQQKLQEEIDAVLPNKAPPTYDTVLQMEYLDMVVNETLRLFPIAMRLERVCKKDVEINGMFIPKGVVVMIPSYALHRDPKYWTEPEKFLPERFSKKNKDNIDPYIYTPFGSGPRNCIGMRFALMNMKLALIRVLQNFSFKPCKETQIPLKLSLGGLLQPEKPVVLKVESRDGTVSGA
The subject of series [12] is Colon-26 KRAS-G12D tumor. In words: Colon-26 Model (KRAS G12D CRC): Efficacy & Safety. Format: in vivo. To be noted: Colon-26 KRAS-G12D in Balb/c. The method, then: Female athymic BALB/c nude or BALB/c mice (Beijing Vital River Laboratory Animal Technology Co., Ltd.), approximately 8-10 weeks old were used in these studies. Animals were maintained in individually vented cages on a 12-h light-dark cycle. Food and water were available ad libitum. The Colon-26 tumor cells were maintained in vitro with RPMI1640 medium supplemented with 10% fetal bovine serum at 37° C. in an atmosphere of 5% CO2 in air. The cells in exponential growth phase were harvested and quantitated by cell counter before tumor inoculation. […] Randomization was started when the mean tumor size reached approximately 125 mm^3. A total of 84 tumor-bearing mice were enrolled in the study and allocated into 7 treatment groups (12 mice per group). Also 12 non-tumor-bearing mice were assigned as un-treated group.
Animals were treated with either vehicle (10% DMSO/90% [20% SBE-β-CD in saline], pH 5) or vehicle containing compounds at the indicated doses by gavage (p.o.) twice daily for approximately 28-42 days (BID×28-42 p.o.), or to ethical endpoints (BWL>20%; Median Tumor Volume (MTV)>2000 mm^3; Individual TV>3000 mm^3; clinical signs of unwell). Clinical signs of unwell was characterized, but not limited to the following. Severe dehydration, hypothermia, abnormal/labored respiration, lethargy, obvious pain, diarrhea, skin lesions, neurological symptoms, impaired mobility (not able to eat or drink) due to significant ascites and enlarged abdomen, astasia, continuous prone or lateral position, signs of muscular atrophy, paralytic gait, clonic convulsions, tonic convulsions, persistent bleeding from body orifice. Dosing as well as tumor and body weight measurements were conducted in a Laminar Flow Cabinet.
Animals were checked daily for morbidity and mortality. During routine monitoring, the animals were checked for any effects of tumor growth and treatments on behavior such as mobility, food and water consumption, body weight gain/loss (body weights were measured twice per week after randomization), eye/hair matting and any other abnormalities. Mortality and observed clinical signs were recorded for individual animals in detail.
Tumor volumes were measured twice per week after randomization in two dimensions using a caliper, and the volume was expressed in mm3 using the formula: V=(L×W×W)/2, where V is tumor volume, L is tumor length (the longest tumor dimension) and W is tumor width (the longest tumor dimension perpendicular to L). Results were presented as the median tumor volume, expressed in mm^3+/−interquartile range, of each group. Tumor Growth Inhibition; TGI %=[1−(Ti/(Ci)]×100; where Ti as the median tumor volume of the treatment group on the measurement day, Ci as the median tumor volume of control group at the measurement day.
The body weights and tumor volumes were measured by using StudyDirector™ software (version 3.1.399.19).
The protocol and any amendment(s) or procedures involving the care and use of animals in this study were reviewed and approved by the Institutional Animal Care and Use Committee (IACUC) of CrownBio prior to execution. During the study, the care and use of animals were conducted in accordance with the regulations of the Association for Assessment and Accreditation of Laboratory Animal Care (AAALAC).

Series [13] addresses hERG Channel (Homo sapiens, UniProt Q12809). In words: biochemical.
Series [14] has as its target CYP450 2D6 (Homo sapiens, UniProt P10635). The experiment in a line: CYP450 Panel. The note with it: 10 μM; substrate dextromethorphan; in % (unit assumed).
Series [15] deals with Caco-2. The experiment in a line: Caco-2 permeability. The note with it: 10 μM, 2 hrs. A general note: Caco-2 cells form a polarised layer with tight junctions and transporters.

A word on the IC50: it is the concentration that gives 50% inhibition. High values mean a need for much substance, low ones inhibition by little substance.

SMILES strings stand for the structures.

Sequence of CYP450 2D6 (P10635 whole entry): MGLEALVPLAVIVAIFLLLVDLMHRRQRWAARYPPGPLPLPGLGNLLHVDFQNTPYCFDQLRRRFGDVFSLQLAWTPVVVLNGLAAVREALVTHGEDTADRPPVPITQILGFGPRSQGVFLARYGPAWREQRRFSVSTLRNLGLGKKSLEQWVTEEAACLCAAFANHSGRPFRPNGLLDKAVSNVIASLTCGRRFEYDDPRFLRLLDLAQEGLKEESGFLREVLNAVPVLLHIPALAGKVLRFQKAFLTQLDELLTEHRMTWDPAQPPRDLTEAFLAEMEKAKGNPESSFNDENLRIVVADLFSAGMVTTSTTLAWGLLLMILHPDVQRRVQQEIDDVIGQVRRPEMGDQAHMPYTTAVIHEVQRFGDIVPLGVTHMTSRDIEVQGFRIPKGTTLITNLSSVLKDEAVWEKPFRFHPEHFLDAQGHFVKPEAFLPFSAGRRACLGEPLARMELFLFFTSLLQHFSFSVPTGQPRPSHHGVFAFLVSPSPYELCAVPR
Sequence of hERG Channel (Q12809 whole entry): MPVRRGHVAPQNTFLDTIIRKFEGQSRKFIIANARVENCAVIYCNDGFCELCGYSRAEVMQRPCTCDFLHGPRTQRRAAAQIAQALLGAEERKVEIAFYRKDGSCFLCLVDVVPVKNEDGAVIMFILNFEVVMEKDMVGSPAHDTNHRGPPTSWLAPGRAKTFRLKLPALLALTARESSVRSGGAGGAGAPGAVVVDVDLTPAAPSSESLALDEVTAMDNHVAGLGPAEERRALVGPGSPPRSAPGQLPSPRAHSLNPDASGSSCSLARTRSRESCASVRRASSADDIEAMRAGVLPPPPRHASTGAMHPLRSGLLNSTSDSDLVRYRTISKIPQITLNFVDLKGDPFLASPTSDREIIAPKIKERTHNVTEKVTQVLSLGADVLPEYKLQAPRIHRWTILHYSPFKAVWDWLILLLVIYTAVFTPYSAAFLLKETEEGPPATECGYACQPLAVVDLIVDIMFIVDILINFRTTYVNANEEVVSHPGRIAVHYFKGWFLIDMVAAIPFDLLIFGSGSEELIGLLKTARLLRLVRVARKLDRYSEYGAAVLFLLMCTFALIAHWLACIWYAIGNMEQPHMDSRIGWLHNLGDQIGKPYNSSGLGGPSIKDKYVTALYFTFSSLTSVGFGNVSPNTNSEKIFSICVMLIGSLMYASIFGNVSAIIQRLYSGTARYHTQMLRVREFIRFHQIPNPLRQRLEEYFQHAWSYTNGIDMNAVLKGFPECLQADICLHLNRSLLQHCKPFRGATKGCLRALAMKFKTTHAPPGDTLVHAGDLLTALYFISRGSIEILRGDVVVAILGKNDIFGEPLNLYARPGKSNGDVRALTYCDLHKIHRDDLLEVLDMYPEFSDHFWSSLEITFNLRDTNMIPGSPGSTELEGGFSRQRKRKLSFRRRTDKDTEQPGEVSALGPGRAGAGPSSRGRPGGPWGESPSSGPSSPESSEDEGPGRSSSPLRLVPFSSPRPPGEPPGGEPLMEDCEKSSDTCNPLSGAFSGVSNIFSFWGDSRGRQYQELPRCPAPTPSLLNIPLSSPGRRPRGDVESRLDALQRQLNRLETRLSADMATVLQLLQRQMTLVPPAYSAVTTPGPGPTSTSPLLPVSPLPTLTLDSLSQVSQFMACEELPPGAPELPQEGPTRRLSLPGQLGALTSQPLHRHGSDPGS
Sequence of CYP450 2C9 (P11712 whole entry): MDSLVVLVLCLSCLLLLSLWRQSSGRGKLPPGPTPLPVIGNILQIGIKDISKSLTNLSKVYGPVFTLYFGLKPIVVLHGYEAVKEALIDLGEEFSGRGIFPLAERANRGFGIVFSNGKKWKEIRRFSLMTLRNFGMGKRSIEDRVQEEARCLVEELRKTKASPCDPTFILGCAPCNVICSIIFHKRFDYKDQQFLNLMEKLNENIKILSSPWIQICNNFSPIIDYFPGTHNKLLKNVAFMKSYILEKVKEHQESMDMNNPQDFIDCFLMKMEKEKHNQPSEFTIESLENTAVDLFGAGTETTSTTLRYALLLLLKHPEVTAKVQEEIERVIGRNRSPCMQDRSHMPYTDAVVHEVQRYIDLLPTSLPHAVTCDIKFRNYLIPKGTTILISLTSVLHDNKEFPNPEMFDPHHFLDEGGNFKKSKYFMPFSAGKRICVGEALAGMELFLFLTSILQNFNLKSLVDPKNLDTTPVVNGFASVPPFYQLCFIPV

`CNS(=O)(=O)Nc1cccc(Cc2c(CN(C)C)c3ccc(OC(=O)N(C)C)cc3oc2=O)c1F` [Compound A, 4-((dimethylamino)methyl)-3-(2-fluoro-3-((N-methylsulfamoyl)amino)benzyl)-2-oxo-2H-chromen-7-yl dimethylcarbamate]: the “Microsome stability, % Remaining @1 hour” value is listed as 51.7% in series [1], 76.5% in series [2] and 28.8% in series [3]. Besides, the “Plasma stability, % Remaining @2 hour” value was 95.1% in series [4], 96.8% in series [5], 106.4% in [6] and 90.6% in series [7]. In series [8], this compound came in with a CYP450 Panel 2B6 of 14.8%. In series [9], the “CYP450 Panel 2C9” value was 6.8. The “CYP450 Panel 2C19” value in series [10] is 8.2. In series [11], the CYP450 Panel 3A4 (midazolam) was 16.3%. The same compound gave a CYP450 Panel 3A4 (testosterone) in series [11] of 26.8%. The “BWL (Day 14)” value in series [12] (150 mg/kg BID po) came out at 0%. Moreover, the “BWL (Day 17)” value in series [12] (150 mg/kg BID po) is given as 0%. For the same compound, in [12] (150 mg/kg BID po), the “TGI (Day 10)” value worked out at 93.9%. The compound also had an IC50 in [13] of 26.2 µM. Moreover, in series [14], the “CYP450 Panel 2D6” value is recorded as −3.7. Moreover, in series [15], the “A − B Permeability Ranking” value is reported as “High”. Also, in series [15], the “Mean Papp A − B” value is listed as 13.0 10^−6 cm/s. Further, the “Mean Papp B − A” value in [15] is given as 21.0 10^−6 cm/s.
`Cn1cnc2c(F)c(Nc3ccc(Br)cc3Cl)c(C(=O)NOCCO)cc21` [Reference 1, Selumetinib]: the “Microsome stability, % Remaining @1 hour” value is recorded as 75.8% in [1], 97.5% in series [2] and 54.6% in series [3]. In addition, the “Plasma stability, % Remaining @2 hour” value was determined as 98.1% in [4], 100.4% in [5], 94.9% in series [6] and 104.8% in [7]. In addition, the CYP450 Panel 2B6 in series [8] is 30.2%. Further, in [9], the “CYP450 Panel 2C9” value turned out to be 14.1. In addition, in series [10], the “CYP450 Panel 2C19” value was 13.9. This compound also displayed a CYP450 Panel 3A4 (midazolam) in series [11] of 25.9%. Moreover, the CYP450 Panel 3A4 (testosterone) in [11] worked out at 21.4%. Also, the “BWL (Day 14)” value in series [12] (50 mg/kg BID po) was 0%. Also, the “BWL (Day 17)” value in series [12] (50 mg/kg BID po) is on record as −2%. The IC50 in series [13] was above 30 µM. Moreover, the “CYP450 Panel 2D6” value in [14] was found to be 5.0. For the same compound, the “A − B Permeability Ranking” value in series [15] is “High”.
